Test results as given in ChEMBL document CHEMBL5150037, “Synthesis and in vitro biological evaluation of 3-ethyl-1,5-naphthyridin-2(1H)-one derivatives as potent PARP-1 selective inhibitors and PARP-1 DNA trappers” (Bioorg Med Chem Lett, 2022).

What was measured:
[1] = target: T1, Poly [ADP-ribose] polymerase 1 (Homo sapiens, UniProt P09874); experiment: Inhibition of PARP-1 (unknown origin)
[2] = target: T2, Poly [ADP-ribose] polymerase 2 (Homo sapiens, UniProt Q9UGN5); experiment: Inhibition of PARP-2 (unknown origin)
T2 sequence (Q9UGN5 whole entry): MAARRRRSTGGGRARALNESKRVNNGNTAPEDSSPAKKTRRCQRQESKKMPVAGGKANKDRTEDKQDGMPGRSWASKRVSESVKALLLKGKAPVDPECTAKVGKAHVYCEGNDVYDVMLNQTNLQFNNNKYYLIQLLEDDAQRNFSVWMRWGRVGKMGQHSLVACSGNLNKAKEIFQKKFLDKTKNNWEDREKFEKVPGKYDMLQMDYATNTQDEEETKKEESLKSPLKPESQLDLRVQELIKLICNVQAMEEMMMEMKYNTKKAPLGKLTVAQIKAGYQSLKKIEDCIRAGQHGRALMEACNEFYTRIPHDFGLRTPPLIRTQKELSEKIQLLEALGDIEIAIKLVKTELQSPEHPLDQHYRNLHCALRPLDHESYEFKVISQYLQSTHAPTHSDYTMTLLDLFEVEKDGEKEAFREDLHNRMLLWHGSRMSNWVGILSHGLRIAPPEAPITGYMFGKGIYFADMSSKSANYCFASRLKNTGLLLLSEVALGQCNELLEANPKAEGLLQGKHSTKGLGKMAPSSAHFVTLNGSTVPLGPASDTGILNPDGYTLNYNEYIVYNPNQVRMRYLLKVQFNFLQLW

[3] = target: T1, Poly [ADP-ribose] polymerase 1; experiment: Inhibition of PARP-1 (unknown origin) binding to DNA assessed as DNA trapping activity
[4] = target: T2, Poly [ADP-ribose] polymerase 2; experiment: Inhibition of PARP-2 (unknown origin) binding to DNA assessed as DNA trapping activity
DLD-1 [5] = experiment: Antiproliferative activity against human DLD-1 cells harbouring BRCA-2 mutant assessed as inhibition of cell growth; format: functional, cell-based
DLD-1 [6] = experiment: Antiproliferative activity against human DLD-1 cells harbouring wild type BRCA assessed as inhibition of cell growth; format: functional, cell-based

T1 sequence (P09874 whole entry): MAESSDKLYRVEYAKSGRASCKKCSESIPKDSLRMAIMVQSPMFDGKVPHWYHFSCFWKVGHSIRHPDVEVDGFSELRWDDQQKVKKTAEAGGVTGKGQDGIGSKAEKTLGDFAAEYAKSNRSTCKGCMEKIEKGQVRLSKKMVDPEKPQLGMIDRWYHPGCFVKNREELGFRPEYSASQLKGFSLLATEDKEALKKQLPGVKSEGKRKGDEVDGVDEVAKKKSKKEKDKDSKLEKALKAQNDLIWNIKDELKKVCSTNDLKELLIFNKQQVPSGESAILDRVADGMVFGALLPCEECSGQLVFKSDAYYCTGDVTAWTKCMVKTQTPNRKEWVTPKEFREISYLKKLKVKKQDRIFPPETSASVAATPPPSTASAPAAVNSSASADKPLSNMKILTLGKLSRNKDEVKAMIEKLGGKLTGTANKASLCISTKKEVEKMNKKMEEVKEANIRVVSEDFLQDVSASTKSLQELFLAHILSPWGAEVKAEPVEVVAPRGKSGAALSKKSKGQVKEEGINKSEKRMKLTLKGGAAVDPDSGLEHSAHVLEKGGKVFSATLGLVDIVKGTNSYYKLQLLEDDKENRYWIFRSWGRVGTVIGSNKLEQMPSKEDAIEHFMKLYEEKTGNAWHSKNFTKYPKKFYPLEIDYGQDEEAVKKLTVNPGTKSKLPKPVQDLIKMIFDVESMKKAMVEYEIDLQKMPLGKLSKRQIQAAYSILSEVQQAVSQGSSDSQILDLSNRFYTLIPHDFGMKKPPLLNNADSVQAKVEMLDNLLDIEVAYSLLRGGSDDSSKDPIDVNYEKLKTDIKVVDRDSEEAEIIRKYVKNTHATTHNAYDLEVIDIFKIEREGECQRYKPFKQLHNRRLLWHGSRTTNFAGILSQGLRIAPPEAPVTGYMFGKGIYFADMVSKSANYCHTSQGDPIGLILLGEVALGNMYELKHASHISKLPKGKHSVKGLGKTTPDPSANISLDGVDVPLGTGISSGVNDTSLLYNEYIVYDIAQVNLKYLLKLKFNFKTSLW

In the case of `CCc1cc2ncc(CN3C[C@@H]4C[C@H]3CN4c3ccc(C(=O)NC)nc3)cc2[nH]c1=O`, the IC50 [1] is reported as 40 nM, the IC50 [2] is reported as 340 nM and the IC50 [3] is reported as > 2500 nM. For the same compound, the IC50 [4] was 37700 nM.
`CCc1cc2ncc(CN3CCN(c4cc5c(cn4)NC(=O)CC5)CC3)cc2[nH]c1=O` showed an IC50 [1] of 5.4 nM, an IC50 [2] of 38 nM and an IC50 [3] of 727 nM. For the same compound, the IC50 [4] was 167 nM.
For `CCc1cc2ncc(CN3CC4(C3)CN(c3ccc(C(=O)NC)nc3)C4)cc2[nH]c1=O`, the IC50 (DLD-1 [5]) was 164 nM, the IC50 [1] was 0.59 nM and the IC50 [2] was 9 nM. The IC50 [3] was 2.97 nM, the IC50 [4] was 839 nM and the IC50 (DLD-1 [6]) was 28100 nM.
`CCc1cc2ncc(CN3CCN(c4ccc(C(C)(C)O)nc4)CC3)cc2[nH]c1=O` was tested, and the IC50 [1] was 397 nM, the IC50 [2] was 450 nM and the IC50 [3] was > 2500 nM. It also gave an IC50 [4] of 14000 nM.
`CCc1cc2ncc(CN3CCN(c4ccc(C(N)C(F)(F)F)nc4)CC3)cc2[nH]c1=O` (stereo not drawn) was tested, and the IC50 [3] was > 2500 nM and the IC50 [4] was 11800 nM.
For `CCc1cc2ncc(CN3CCN(c4ccc(C(=O)NC)c5nccn45)CC3)cc2[nH]c1=O`, the IC50 (DLD-1 [5]) was 161 nM, the IC50 [1] was 0.63 nM and the IC50 [2] was 982 nM. The IC50 [3] was 3.58 nM, the IC50 [4] was 1560 nM and the IC50 (DLD-1 [6]) was 8700 nM.
`CCc1cc2ncc(CN3CC[C@@H](Nc4ccc(C(=O)NC)nc4)C3)cc2[nH]c1=O` was tested, and the IC50 (DLD-1 [5]) was 4.82 nM, the IC50 [1] was 0.49 nM and the IC50 [2] was 133 nM. For the same compound, the IC50 [3] was 1.85 nM, the IC50 [4] was 3010 nM and the IC50 (DLD-1 [6]) was 43800 nM.
`O=C(c1cc(Cc2n[nH]c(=O)c3ccccc23)ccc1F)N1CCN(C(=O)C2CC2)CC1` [OLAPARIB] showed an IC50 (DLD-1 [5]) of 172 nM and an IC50 (DLD-1 [6]) of 23300 nM.
`CCc1cc2ncc(CN3CCN(c4ccc(C(=O)NC)nc4)CC3)cc2[nH]c1=O` [SARUPARIB] showed an IC50 (DLD-1 [5]) of 0.915 nM and an IC50 (DLD-1 [6]) of 12100 nM.
`CCc1cc2ncc(CN3CC(Nc4ccc(C(=O)NC)nc4)C3)cc2[nH]c1=O` was tested, and the IC50 (DLD-1 [5]) was 25.6 nM, the IC50 [1] was 2.6 nM and the IC50 [2] was 192 nM. It also gave an IC50 [3] of 4.76 nM, an IC50 [4] of 12000 nM and an IC50 (DLD-1 [6]) of 89200 nM.
In the case of `CCc1cc2ncc(CN3CCN(c4cnc5cn[nH]c5c4)CC3)cc2[nH]c1=O`, the IC50 [1] is reported as 0.9 nM, the IC50 [2] is reported as 5.2 nM and the IC50 [3] is reported as 231 nM. It also gave an IC50 [4] of 210 nM.
In the case of `CCc1cc2ncc(CN3CC4CN(c5ccc(C(=O)NC)nc5)CC4C3)cc2[nH]c1=O` (stereo not drawn), the IC50 (DLD-1 [5]) is reported as 46.8 nM, the IC50 [1] is reported as 0.34 nM and the IC50 [2] is reported as 18 nM. It also gave an IC50 [3] of 8.14 nM, an IC50 [4] of 678 nM and an IC50 (DLD-1 [6]) of 2980 nM.
`CCc1cc2ncc(CN3CCN(c4cc5cccc(C(=O)NC)c5cn4)CC3)cc2[nH]c1=O` was tested, and the IC50 [1] was 14 nM, the IC50 [2] was 151 nM and the IC50 [3] was 1570 nM. For the same compound, the IC50 [4] was 2980 nM.
`CCc1cc2ncc(CN3CCC(Nc4ccc(C(=O)NC)nc4)CC3)cc2[nH]c1=O` gave an IC50 [1] of 3.4 nM, an IC50 [2] of 40 nM and an IC50 [3] of 259 nM. The IC50 [4] was 3050 nM.
In the case of `CCc1cc2ncc(CN3CCC(Nc4ccc(C(=O)NC)nc4)C3)cc2[nH]c1=O` (stereo not drawn), the IC50 (DLD-1 [5]) is reported as 43.8 nM, the IC50 [1] is reported as 0.94 nM and the IC50 [2] is reported as 68 nM. For the same compound, the IC50 [3] was 1.61 nM, the IC50 [4] was 9440 nM and the IC50 (DLD-1 [6]) was 102000 nM.
For `CCc1cc2ncc(CN3CC4CCC(C3)N4c3ccc(C(=O)NC)nc3)cc2[nH]c1=O`, the IC50 [1] was 41 nM and the IC50 [3] was > 2500 nM.
With `CCc1cc2ncc(CN3CCN(c4ccc5nc(C(F)(F)F)[nH]c5n4)CC3)cc2[nH]c1=O` the IC50 [1] was 2.6 nM, the IC50 [2] was 60 nM and the IC50 [3] was 244 nM. For the same compound, the IC50 [4] was 1400 nM.
For `CCc1cc2ncc(CN3CCN(c4ccc(OC(F)F)nc4)CC3)cc2[nH]c1=O`, the IC50 (DLD-1 [5]) was 66 nM, the IC50 [1] was 1 nM and the IC50 [2] was 154 nM. The IC50 [3] was 4.51 nM, the IC50 [4] was 6300 nM and the IC50 (DLD-1 [6]) was 15200 nM.
`CCc1cc2ncc(CN3CCn4c(cnc4C(=O)NC)C3)cc2[nH]c1=O` was tested, and the IC50 [1] was 75 nM, the IC50 [2] was 20 nM and the IC50 [3] was > 2500 nM. It also gave an IC50 [4] of 2040 nM.
For `CCc1cc2ncc(CN3CCN(c4ccc5[nH]ncc5n4)CC3)cc2[nH]c1=O`, the IC50 [1] was 0.78 nM, the IC50 [2] was 23 nM and the IC50 [3] was 380 nM. It also gave an IC50 [4] of 1170 nM.
`CCc1cc2ncc(CN3CCc4nc(C(=O)NC)ccc4C3)cc2[nH]c1=O` was tested, and the IC50 [1] was 348 nM, the IC50 [2] was 485 nM and the IC50 [3] was > 2500 nM. For the same compound, the IC50 [4] was 4040 nM.
With `CCc1cc2ncc(CN3CCc4cc(/C=C/C(=O)NC)ccc4C3)cc2[nH]c1=O` the IC50 (DLD-1 [5]) was 10.8 nM, the IC50 [1] was 0.4 nM and the IC50 [2] was 41.5 nM. It also gave an IC50 [3] of 11.2 nM, an IC50 [4] of 1160 nM and an IC50 (DLD-1 [6]) of 33000 nM.
`CCc1cc2ncc(CN3CCN(c4ccc5cn[nH]c5n4)CC3)cc2[nH]c1=O` was tested, and the IC50 (DLD-1 [5]) was 395 nM, the IC50 [1] was 0.41 nM and the IC50 [3] was 4.78 nM. The IC50 (DLD-1 [6]) was 15600 nM.
Compound `CCc1cc2ncc(CN3CCN(c4ccc5cc[nH]c5n4)CC3)cc2[nH]c1=O` has an IC50 [1] of 1.3 nM, an IC50 [2] of 21 nM and an IC50 [3] of 64 nM. It also gave an IC50 [4] of 114 nM.
With `CCc1cc2ncc(CN3CCN(c4ccc5oc(=O)[nH]c5c4)CC3)cc2[nH]c1=O` the IC50 [1] was 2 nM, the IC50 [2] was 87 nM and the IC50 [3] was 10.4 nM. It also gave an IC50 [4] of 994 nM.
`CCc1cc2ncc(CN3CC4(CCN(c5ccc(C(=O)NC)nc5)CC4)C3)cc2[nH]c1=O` was tested, and the IC50 [1] was 12 nM and the IC50 [3] was 158 nM.
With `CCc1cc2ncc(CN3CC4CC(C3)N4c3ccc(C(=O)NC)nc3)cc2[nH]c1=O` the IC50 [1] was > 2500 nM and the IC50 [3] was > 2500 nM.
In the case of `CCc1cc2ncc(CN3CC[C@H](Nc4ccc(C(=O)NC)nc4)C3)cc2[nH]c1=O`, the IC50 (DLD-1 [5]) is reported as > 2500 nM, the IC50 [1] is reported as 33 nM and the IC50 [2] is reported as 137 nM. For the same compound, the IC50 [3] was 1460 nM, the IC50 [4] was 4170 nM and the IC50 (DLD-1 [6]) was 77100 nM.
